Measured values published in patent US10689414B2 (Agios Pharmaceuticals, Inc., priority 2013, dated 2020).

The compounds below were run on U87MG cells (assay: Cellular assay, inhibition of 2-HG production in U87MG cells). Conditions: Homo sapiens, U-87 MG, 48 h.
Type: cell-based
Experimental: Cells (HT1080 or U87MG) are grown in T125 flasks in DMEM containing 10% FBS, 1× penicillin/streptomycin and 500 ug/mL G418 (present in U87MG cells only). They are harvested by trypsin and seeded into 96 well white bottom plates at a density of 5000 cell/well in 100 ul/well in DMEM with 10% FBS. […] Cells are incubated overnight at 37° C. in 5% CO2. The next day test compounds are made up at 2× the final concentration and 100 ul are added to each cell well. The final concentration of DMSO is 0.2% and the DMSO control wells are plated in row G. The plates are then placed in the incubator for 48 hours. […] The cell plate is placed back in the incubator for another 24 hours. At 72 hours post compound addition, 10 mL/plate of Promega Cell Titer Glo reagent is thawed and mixed. The cell plate is removed from the incubator and allowed to equilibrate to room temperature. Then 100 ul of Promega Cell Titer Glo reagent is added to each well of media. The cell plate is then placed on an orbital shaker for 10 minutes and then allowed to sit at room temperature for 20 minutes. The plate is then read for luminescence with an integration time of 500 ms.

SMILES | IC50
N#Cc1ccnc(N2C(=O)OCC[C@H]2C(=O)N(c2cc(F)cc(F)c2)[C@H](C(=O)NC2CC(F)(F)C2)c2ccccc2Cl)n1 [Compound 154, (S)—N—((S)-1-(2-Chlorophenyl)-2-((3,3-difluorocyclobutyl)amino)-2-oxoethyl)-3-(4-cyanopyrimidin-2-yl)-N-(3,5-difluorophenyl)-2-oxo-1,3-oxazinane-4-carboxamide] | < 100 nM
N#Cc1ccnc(N2C(=O)CC[C@H]2C(=O)N(c2cccc(CO)c2)[C@H](C(=O)NC2CC(F)(F)C2)c2ccccc2Cl)c1 [Compound 131, (S)—N—((S)-1-(2-Chlorophenyl)-2-(3,3-difluorocyclobutylamino)-2-oxoethyl)-1-(4-cyanopyridin-2-yl)-N-(3-(hydroxymethyl)phenyl)-5-oxopyrrolidine-2-carboxamide] | < 100 nM
N#Cc1ccnc(N2C(=O)CC[C@H]2C(=O)N(c2cc(F)cc(F)c2)[C@H](C(=O)NC2CC(F)(F)C2)c2cc(Cl)ccc2Cl)c1 [Compound 201, (S)-1-(4-Cyanopyridin-2-yl)-N—((S)-1-(2,5-dichlorophenyl)-2-((3,3-difluorocyclobutyl)-amino)-2-oxoethyl)-N-(3,5-difluorophenyl)-5-oxopyrrolidine-2-carboxamide] | < 100 nM
N#Cc1ccnc(N2C(=O)[C@@H](O)C[C@H]2C(=O)N(c2cc(F)cc(F)c2)[C@H](C(=O)NC2CC(F)(F)C2)c2ccccc2Cl)c1 [Compound 171, (2S,4S)—N—((S)-1-(2-Chlorophenyl)-2-((3,3-difluorocyclobutyl)amino)-2-oxoethyl)-1-(4-cyano-pyridin-2-yl)-N-(3,5-difluorophenyl)-4-hydroxy-5-oxopyrrolidine-2-carboxamide] | < 100 nM
O=C(NC1CC(F)(F)C1)C(c1ccccc1Cl)N(C(=O)[C@@H]1CCC(=O)N1c1ccccc1)c1cccc(F)c1 (stereo partly shown) [Compound 23] | 100 to 500 nM
CS(=O)(=O)c1cccc(N(C(=O)[C@@H]2CCC(=O)N2c2cc(C#N)ccn2)C(C(=O)NC2CCC(F)(F)CC2)c2ccccc2Cl)c1 (stereo partly drawn) [Compound 95, (2S)—N-(1-(2-Chlorophenyl)-2-((4,4-difluorocyclohexyl)amino)-2-oxoethyl)-1-(4-cyanopyridin-2-yl)-N-(3-(methylsulfonyl)phenyl)-5-oxopyrrolidine-2-carboxamide] | < 100 nM
N#Cc1ccnc(N2C(=O)CC[C@H]2C(=O)N(c2cccc(C3CC3)c2)[C@H](C(=O)NC2CC(F)(F)C2)c2ccccc2Cl)c1 [Compound 173, (S)—N—((S)-1-(2-Chlorophenyl)-2-((3,3-difluorocyclobutyl)amino)-2-oxoethyl)-1-(4-cyanopyri-din-2-yl)-N-(3-cyclopropylphenyl)-5-oxopyrrolidine-2-carboxamide] | < 100 nM
CN1C[C@@H](C(=O)N(c2cccc(F)c2)C(C(=O)NC2CC(F)(F)C2)c2ccccc2Cl)N(c2cc(C#N)ccn2)C1=O (stereo partly drawn) [Compound 79, (4S)—N-(1-(2-chlorophenyl)-2-((3,3-difluorocyclobutyl)amino)-2-oxoethyl)-3-(4-cyanopyridin-2-yl)-N-(3-fluorophenyl)-1-methyl-2-oxoimidazolidine-4-carboxamide] | < 100 nM
N#Cc1ccnc(N2C(=O)NC[C@H]2C(=O)N(c2cccc(F)c2)[C@H](C(=O)NC2CC(F)(F)C2)c2ccccc2Cl)c1 [Compound 80, (S)—N—((S)-1-(2-chlorophenyl)-2-(3,3-difluorocyclobutylamino)-2-oxoethyl)-3-(4-cyanopyridin-2-yl)-N-(3-fluorophenyl)-2-oxoimidazolidine-4-carboxamide] | < 100 nM

Other lines, results leading:

IC50 | SMILES
< 100 nM | N#Cc1ccnc(N2C(=O)CC[C@H]2C(=O)N(c2cccc(F)c2)[C@H](C(=O)NC2CCC(F)(F)CC2)c2ccccc2Cl)c1F [Compound 83, (S)—N—((S)-1-(2-Chlorophenyl)-2-((4,4-difluorocyclohexyl)amino)-2-oxoethyl)-1-(4-cyano-3-fluoropyridin-2-yl)-N-(3-fluorophenyl)-5-oxopyrrolidine-2-carboxamide]
< 100 nM | N#Cc1ccnc(N2C(=O)CC[C@H]2C(=O)N(c2cc(F)cc(F)c2)[C@H](C(=O)NC2CC(F)(F)C2)c2c(Cl)cccc2Cl)c1 [Compound 199, (S)-1-(4-Cyanopyridin-2-yl)-N—((S)-1-(2,6-dichlorophenyl)-2-((3,3-difluorocyclobutyl)amino)-2-oxoethyl)-N-(3,5-difluorophenyl)-5-oxopyrrolidine-2-carboxamide]
< 100 nM | N#Cc1ccnc(N2C(=O)CC[C@H]2C(=O)N(c2cc(F)cc(C3CC3)c2)[C@H](C(=O)NC2CCC(F)(F)CC2)c2ccccc2Cl)c1 [Compound 202, (S)—N—((S)-1-(2-Chlorophenyl)-2-((4,4-difluorocyclohexyl)amino)-2-oxoethyl)-1-(4-cyanopyridin-2-yl)-N-(3-cyclopropyl-5-fluorophenyl)-5-oxopyrrolidine-2-carboxamide]
< 100 nM | N#Cc1ccnc(N2C(=O)CC[C@H]2C(=O)N(c2cc(F)cc(F)c2)[C@H](C(=O)NC2CC(F)(F)C2)c2ncccc2Cl)c1 [Compound 198, (S)—N—((S)-1-(3-Chloropyridin-2-yl)-2-(3,3-difluorocyclobutylamino)-2-oxoethyl)-1-(4-cyanopyridin-2-yl)-N-(3,5-difluorophenyl)-5-oxopyrrolidine-2-carboxamide]
< 100 nM | N#Cc1ccnc(N2C(=O)[C@H](F)C[C@H]2C(=O)N(c2cccc(F)c2)[C@H](C(=O)NC2CCC(F)(F)CC2)c2ccccc2Cl)c1 [Compound 151, (2S,4R)—N—((S)-1-(2-Chlorophenyl)-2-((4,4-difluorocyclohexyl)amino)-2-oxoethyl)-1-(4-cyanopyridin-2-yl)-4-fluoro-N-(3-fluorophenyl)-5-oxopyrrolidine-2-carboxamide]
< 100 nM | N#Cc1cccc(N(C(=O)[C@@H]2CCC(=O)N2c2cc(C#N)ccn2)[C@H](C(=O)NC2CC(F)(F)C2)c2ccccc2Cl)c1 [Compound 128, (S)—N—((S)-1-(2-Chlorophenyl)-2-((3,3-difluorocyclobutyl)amino)-2-oxoethyl)-N-(3-cyano-phenyl)-1-(4-cyanopyridin-2-yl)-5-oxopyrrolidine-2-carboxamide]
< 100 nM | N#Cc1ccnc(N2C(=O)OCC[C@H]2C(=O)N(c2cccc(F)c2)C(C(=O)NC2CC(F)(F)C2)c2ccccc2Cl)c1 (mixture of isomers) [Compound 90, (4S)—N-(1-(2-Chlorophenyl)-2-(3,3-difluorocyclobutylamino)-2-oxoethyl)-3-(4-cyanopyridin-2-yl)-N-(3-fluorophenyl)-2-oxo-1,3-oxazinane-4-carboxamide]
< 100 nM | N#Cc1ccnc(N2C(=O)[C@H](O)C[C@H]2C(=O)N(c2cccc(F)c2)[C@H](C(=O)NC2CC(F)(F)C2)c2ccccc2Cl)c1 [Compound 113, (2S,4R)—N—((S)-1-(2-Chlorophenyl)-2-(3,3-difluorocyclobutylamino)-2-oxoethyl)-1-(4-cyano-pyridin-2-yl)-N-(3-fluorophenyl)-4-hydroxy-5-oxopyrrolidine-2-carboxamide]
100 to 500 nM | N#Cc1ccnc(N2C(=O)[C@H](O)C[C@H]2C(=O)N(c2cccc(F)c2)[C@@H](C(=O)NC2CCC(F)(F)CC2)c2ccccc2Cl)n1 [Compound 122, (2S,4R)—N—((R)-1-(2-Chlorophenyl)-2-((4,4-difluorocyclohexyl)amino)-2-oxoethyl)-1-(4-cyanopyrimidin-2-yl)-N-(3-fluorophenyl)-4-hydroxy-5-oxopyrrolidine-2-carboxamide]
< 100 nM | N#Cc1ccnc(N2C(=O)CC[C@H]2C(=O)N(c2cccc(F)c2)[C@H](C(=O)NC2CCC(F)(F)CC2)c2ccccc2Cl)c1 [Compound 53]
